From ChEMBL document CHEMBL5518220, “The Discovery of 7-Isopropoxy-2-(1-methyl-2-oxabicyclo[2.1.1]hexan-4-yl)-N-(6-methylpyrazolo[1,5-a]pyrimidin-3-yl)imidazo[1,2-a]pyrimidine-6-carboxamide (BIO-7488), a Potent, Selective, and CNS-Penetrant IRAK4 Inhibitor for the Treatment of Ischemic Stroke” (J Med Chem, 2024)
Activity calls are given as the source filed them. The calls are words filed in the database; no cut-off is given here.

Legend:
MDR1 (P-gp) = experiment: Efflux ratio of apparent permeability across basolateral to apical side over apical to basolateral side in MDCK-MDR1 cells at 1 uM incubated for 120 mins by LC-MS/MS analysis; type: ADME, cell-based, Canis lupus familiaris; conditions: dog
[1] = biological target: T1, Interleukin-1 receptor-associated kinase 4 (Homo sapiens, UniProt Q9NWZ3)
T1 sequence (Q9NWZ3 whole entry): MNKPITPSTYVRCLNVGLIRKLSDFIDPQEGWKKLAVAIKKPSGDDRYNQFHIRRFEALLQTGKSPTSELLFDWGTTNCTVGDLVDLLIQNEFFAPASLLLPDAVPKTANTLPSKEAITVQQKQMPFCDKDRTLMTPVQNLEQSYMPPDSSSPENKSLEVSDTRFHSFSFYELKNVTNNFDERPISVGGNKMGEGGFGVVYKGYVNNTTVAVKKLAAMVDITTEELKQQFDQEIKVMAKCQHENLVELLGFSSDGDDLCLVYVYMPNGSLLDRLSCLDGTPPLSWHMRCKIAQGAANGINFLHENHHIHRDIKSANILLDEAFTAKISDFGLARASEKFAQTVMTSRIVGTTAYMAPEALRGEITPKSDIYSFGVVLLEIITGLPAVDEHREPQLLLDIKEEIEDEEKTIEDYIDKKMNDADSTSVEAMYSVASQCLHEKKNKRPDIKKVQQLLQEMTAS

[2] = Metabolic stability in human liver microsomes assessed as intrinsic clearance; type: ADME, Microsome; conditions: read-out: CLH
[3] = Metabolic stability in rat liver microsomes assessed as intrinsic clearance; type: ADME, Microsome; conditions: read-out: CLH
[4] = Unbound clearance in rat at 1 mg/kg, iv by LC-MS/MS analysis; type: ADME, organism-based; conditions: in vivo
[5] = Metabolic stability in human hepatocytes assessed as intrinsic clearance; type: ADME, cell-based, Hepatocyte; conditions: read-out: CLH
[6] = Metabolic stability in rat hepatocytes assessed as intrinsic clearance; type: ADME, cell-based, Hepatocyte; conditions: read-out: CLH
[7] = Clearance in rat at 1 mg/kg, iv by LC-MS/MS analysis; type: ADME, organism-based; conditions: in vivo
[8] = Unbound brain-to-plasma concentration ratio in iv dosed rat measured at 4 to 24 hrs by LC-MS/MS analysis; type: ADME, organism-based; conditions: brain and plasma, time 4-24 hrs, read-out: K(p,uu,brain)
[9] = biological target: T2, Voltage-gated inwardly rectifying potassium channel KCNH2 (Homo sapiens, UniProt Q12809); experiment: Displacement of [35S]-MK499 from hERG by […]; type: toxicity
[10] = Lipophilicity, logD of compound in n-octanol and aqueous buffer at pH 7.4 by RP-HPLC method; type: physicochemical
[11] = Free drug level in male C57BL/6 mouse brain at 30 mg/kg, po qd measured on 3 to 7 days; type: ADME, organism-based; conditions: in vivo, time 3-7 day
Mus musculus [12] = experiment: Inhibition of IL-6 production in male C57BL/6 mouse model of distal hypoxic-middle cerebral artery occlusion stroke assessed as reduction in IL-6 level in brain at 10 to 30 mg/kg, po qd administered via oral gavage for 3 to 7 days starting from 1 hr 15 mins post cauterization by ELISA; type: functional, organism-based; conditions: dose 10-30 mg/kg, time 3-7 day
Mus musculus [13] = experiment: Inhibition of LPS-induced IL-1beta production in po dosed female C57BL/6 mouse assessed as reduction in IL-1beta level in brain administered via oral gavage for 60 mins followed by LPS stimulation at 0.6 ug, icv measured after 120 mins by ELISA; type: functional, organism-based; conditions: dose 10-30 mg/kg, time 180.0 min
Mus musculus [14] = experiment: Inhibition of LPS-induced TNF-alpha production in po dosed female C57BL/6 mouse assessed as reduction in TNF-alpha level in brain administered via oral gavage for 60 mins followed by LPS stimulation at 0.6 ug, icv measured after 120 mins by ELISA; type: functional, organism-based; conditions: dose 10-30 mg/kg, time 180.0 min
Mus musculus [15] = experiment: Inhibition of TNF-alpha production in male C57BL/6 mouse model of distal hypoxic-middle cerebral artery occlusion stroke assessed as reduction in TNF-alpha level in CNS at 10 to 30 mg/kg, po qd administered via oral gavage for 3 to 7 days starting from 1 hr 15 mins post cauterization by ELISA; type: functional, organism-based; conditions: dose 10-30 mg/kg, time 3-7 day
[16] = Inhibition of […] induced IL-1beta production in human whole blood preincubated for 1 hr followed by R848 stimulation and measured after 4 hrs by MSD assay; type: functional, tissue-based
Mus musculus [17] = experiment: Inhibition of TNF-alpha production in male C57BL/6 mouse model of distal hypoxic-middle cerebral artery occlusion stroke assessed as reduction in TNF-alpha level in brain at 10 to 30 mg/kg, po qd administered via oral gavage for 3 days starting from 1 hr 15 mins post cauterization by ELISA; type: functional, organism-based; conditions: dose 10-30 mg/kg, time 3.0 day
Mus musculus [18] = experiment: Inhibition of LPS-induced IL-6 production in po dosed female C57BL/6 mouse assessed as reduction in IL-6 level in plasma administered via oral gavage for 60 mins followed by LPS stimulation at 0.5 mg/kg, ip measured after 90 mins by ELISA; type: functional, organism-based
[19] = biological target: T2, Voltage-gated inwardly rectifying potassium channel KCNH2; experiment: Inhibition of hERG by patch clamp method; type: toxicity
Mus musculus [20] = experiment: Inhibition of LPS-induced IL-6 production in po dosed female C57BL/6 mouse assessed as reduction in IL-6 level in brain administered via oral gavage for 60 mins followed by LPS stimulation at 0.6 ug, icv measured after 120 mins by ELISA; type: functional, organism-based; conditions: dose 10-30 mg/kg, time 180.0 min
Mus musculus [21] = experiment: Inhibition of IL-1beta production in male C57BL/6 mouse model of distal hypoxic-middle cerebral artery occlusion stroke assessed as reduction in IL-1beta level in brain at 10 to 30 mg/kg, po qd administered via oral gavage for 3 to 7 days starting from 1 hr 15 mins post cauterization by ELISA; type: functional, organism-based; conditions: dose 10-30 mg/kg, time 3-7 day
Mus musculus [22] = experiment: Inhibition of LPS-induced TNF-alpha production in po dosed female C57BL/6 mouse assessed as reduction in TNF-alpha level in plasma administered via oral gavage for 60 mins followed by LPS stimulation at 0.5 mg/kg, ip measured after 90 mins by ELISA; type: functional, organism-based
Mus musculus [23] = experiment: Inhibition of IL-6 production in male C57BL/6 mouse model of distal hypoxic-middle cerebral artery occlusion stroke assessed as reduction in IL-6 level in CNS at 10 to 30 mg/kg, po qd administered via oral gavage for 3 days starting from 1 hr 15 mins post cauterization by ELISA; type: functional, organism-based; conditions: dose 10-30 mg/kg, time 3.0 day
Mus musculus [24] = experiment: Inhibition of LPS-induced IL-1beta production in po dosed female C57BL/6 mouse assessed as reduction in IL-1beta level in plasma administered via oral gavage for 60 mins followed by LPS stimulation at 0.5 mg/kg, ip measured after 90 mins by ELISA; type: functional, organism-based

T2 sequence (Q12809 whole entry): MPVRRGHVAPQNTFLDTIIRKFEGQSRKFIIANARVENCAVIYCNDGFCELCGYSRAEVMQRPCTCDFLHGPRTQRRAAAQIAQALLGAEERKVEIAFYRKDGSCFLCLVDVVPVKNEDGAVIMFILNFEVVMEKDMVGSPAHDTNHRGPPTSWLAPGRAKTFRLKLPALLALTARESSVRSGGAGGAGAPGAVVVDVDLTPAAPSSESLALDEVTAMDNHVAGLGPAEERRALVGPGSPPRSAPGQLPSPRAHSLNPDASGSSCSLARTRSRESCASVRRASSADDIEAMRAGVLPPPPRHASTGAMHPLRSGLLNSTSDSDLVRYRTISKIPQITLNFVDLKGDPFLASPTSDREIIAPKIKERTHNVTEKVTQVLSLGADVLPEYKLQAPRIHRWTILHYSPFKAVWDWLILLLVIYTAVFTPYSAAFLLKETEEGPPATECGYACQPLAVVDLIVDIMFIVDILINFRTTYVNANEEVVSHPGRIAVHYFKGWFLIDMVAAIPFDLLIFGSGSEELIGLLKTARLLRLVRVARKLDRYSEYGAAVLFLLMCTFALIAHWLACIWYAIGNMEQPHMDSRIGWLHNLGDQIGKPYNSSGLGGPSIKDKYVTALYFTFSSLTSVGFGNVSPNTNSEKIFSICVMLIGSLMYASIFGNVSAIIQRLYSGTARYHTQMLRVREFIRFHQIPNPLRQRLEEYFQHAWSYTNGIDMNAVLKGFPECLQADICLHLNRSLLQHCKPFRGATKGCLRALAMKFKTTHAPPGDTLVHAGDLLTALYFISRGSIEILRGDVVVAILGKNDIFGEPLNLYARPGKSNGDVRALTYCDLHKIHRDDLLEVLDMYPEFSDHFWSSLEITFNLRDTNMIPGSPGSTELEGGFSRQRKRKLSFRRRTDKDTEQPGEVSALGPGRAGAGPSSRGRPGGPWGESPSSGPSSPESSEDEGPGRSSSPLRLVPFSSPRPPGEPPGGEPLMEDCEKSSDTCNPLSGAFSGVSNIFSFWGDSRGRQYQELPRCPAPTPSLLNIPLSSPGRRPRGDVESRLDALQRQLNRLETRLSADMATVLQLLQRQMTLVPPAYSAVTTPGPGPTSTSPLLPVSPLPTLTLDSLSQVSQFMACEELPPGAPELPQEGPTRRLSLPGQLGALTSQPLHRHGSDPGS

Row | efflux ratio at 2 h, 1 µM (MDR1 (P-gp)) | IC50 [1] [nM] | CLint scaled [2] [mL/min/kg] | CLint scaled [3] [mL/min/kg] | CL free [4] [mL/min/kg] | CLint scaled [5] [mL/min/kg] | CLint scaled [6] [mL/min/kg] | clearance [7] [mL/min/kg] | Kp uu [8] | Compound | also measured
1 | 1.1 | 1.4 | 55 | 266 | – | – | – | – | – | CCOc1cc2nc(CCCOC)cn2cc1NC(=O)c1cccc(C(F)F)n1 | –
2 | – | 150 | < 5 | 20 | 149 | 18 | 36 | 16 | 1 | Cc1cc2nc(C3CCOCC3)cn2cc1NC(=O)c1cccc(C(F)F)n1 | –
3 | – | 130 | 11 | 26 | 227 | 16 | 12 | 20 | 0.7 | Cc1cc(NC(=O)c2cccc(C(F)F)n2)cn2cc(C3CCOCC3)nc12 | –
4 | – | 16.3 | – | – | – | – | – | – | – | CC(C)Oc1nc2nc(C34COC(C)(C3)C4)cn2cc1C(=O)Nc1cnn2ccncc12 | –
5 | 2 | 0.6 | 27 | 40 | 1738 | 45 | 63 | 57 | 0.3 | CCOc1cc2nc(C3CCOCC3)cn2cc1NC(=O)c1cccc(C(F)F)n1 | –
6 | – | – | – | – | 28 | – | – | 2.6 | 0.7 | Cc1cnc2c(NC(=O)c3cn4cc(C56COC(C)(C5)C6)nc4c(F)c3OC(C)C)cnn2c1 | IC50 [9]: > 60000 nM; logD [10]: 2.5
7 | – | – | < 5 | 20 | 45 | 8 | < 3 | 10 | 0.2 | COc1cc(NC(=O)c2cccc(C(F)(F)F)n2)cn2cc(C3CCOCC3)nc12 | –
8 | – | 0.25 | 21 | 81 | – | 28 | 29 | – | – | CC(C)Oc1cc2nc(C3CCOCC3)cn2cc1C(=O)Nc1cccc(C(F)F)n1 | –
9 | 5.5 | – | < 4.7 | < 10.7 | – | – | – | – | – | CCOc1cc2nc(C(C)(C)O)cn2cc1NC(=O)c1cccc(C(F)F)n1 | –
10 | 0.7 | – | 68 | 198 | – | – | – | – | – | CCOc1cc2nc(C3(OC)CC3)cn2cc1NC(=O)c1cccc(C(F)F)n1 | –
11 | – | 0.4 | – | – | 64 | – | – | 10 | 0.2 | CC(C)Oc1nc2nc(C34COC(C)(C3)C4)cn2cc1C(=O)Nc1cnn2cccnc12 | IC50 [19]: 19700 nM; logD [10]: 2.1
12 | – | 0.2 | 30 | 61 | 1788 | 75 | 37 | 22 | 0.4 | CC(C)Oc1cc2nc(C3CCOCC3)cn2cc1NC(=O)c1cccc(C(F)F)n1 | –
13 | – | – | – | – | 67 | – | – | 7.2 | 0.2 | CC(C)Oc1nc2nc(C34COC(C)(C3)C4)cn2cc1C(=O)Nc1cnn2cc(F)cnc12 | IC50 [19]: 18000 nM; logD [10]: 2.4
14 | 1.4 | 0.2 | 5.4 | < 11 | 1388 | 19 | 11 | 37 | 0.4 | CCOc1cc2nc(C34COC(C)(C3)C4)cn2cc1NC(=O)c1cccc(C(F)F)n1 | IC50 [19]: 780 nM
15 | 0.4 | – | 20 | 145 | – | – | – | – | – | CCOc1cc2nc(C3CC3)cn2cc1NC(=O)c1cccc(C(F)F)n1 | –
16 | – | – | – | – | 143 | – | – | 11 | 0.1 | CC(C)Oc1cc2nc(C34COC(C)(C3)C4)cn2cc1C(=O)Nc1cnn2cccnc12 | IC50 [19]: > 30000 nM; logD [10]: 2.1
17 | 0.5 | – | 32 | 240 | – | – | – | – | – | CCOc1cc2nc(CCOC)cn2cc1NC(=O)c1cccc(C(F)F)n1 | –

Row | Compound | efflux ratio at 2 h, 1 µM (MDR1 (P-gp)) | IC50 [1] [nM] | CLint scaled [2] [mL/min/kg] | CLint scaled [3] [mL/min/kg] | CL free [4] [mL/min/kg] | CLint scaled [5] [mL/min/kg] | CLint scaled [6] [mL/min/kg] | clearance [7] [mL/min/kg] | Kp uu [8] | also measured
18 | CC(C)Oc1cc2nc(C34COC(C)(C3)C4)cn2cc1C(=O)Nc1cccc(C(F)F)n1 | – | 0.17 | < 5 | 11 | 563 | 5.3 | < 3 | 15 | 0.4 | Drug uptake(free) [11]: 100 nM; inhibition (Mus musculus [12]): Active; inhibition (Mus musculus [13]): Dose-Dependent Effect; inhibition (Mus musculus [14]): Dose-Dependent Effect; inhibition (Mus musculus [15]): inactive; IC50 ([16]; Homo sapiens, Blood): 306 nM; fIC50 ([16]; time 5 hrs): 6 nM; inhibition (Mus musculus [17]): inactive; inhibition (Mus musculus [18]): Dose-Dependent Effect; IC50 [19]: 2200 nM; inhibition (Mus musculus [20]): Dose-Dependent Effect; logD [10]: 4.4; inhibition (Mus musculus [21]): Active; inhibition (Mus musculus [22]): Dose-Dependent Effect; inhibition (Mus musculus [23]): inactive; inhibition (Mus musculus [24]): Dose-Dependent Effect
